According to PMC3436892, “Novel African Trypanocidal Agents: Membrane Rigidifying Peptides” (PLoS ONE, 2012):

Key:
[1] = Parallax analysis of tryptophan penetration depth; assay type: physicochemical; details: for F1/F2 ± S.D.: ratio of tryptophan fluorescence intensity (357 nm) with shallow (6,7-dibromo-PC, F1) and deep (9,10-dibromo-PC, F2) quencher, 200 µg/ml liposomes, at least triplicate
Procedure: The hydrocarbon penetration depth of tryptophans spaced throughout synthetic peptides corresponding to SHP-1 or SHP-3 (Table S1) was determined by parallax analysis with brominated phosphatidylcholine liposomes. Large unilamellar liposomes composed of egg phosphatidylcholine and 10 mol % 1-palmitoyl-2-(6,7-dibromo)stearoyl-sn-glycero-3-phosphocholine (shallow quencher) or 1-palmitoyl-2-(9,10-dibromo)stearoyl-sn-glycero-3-phosphocholine (deep quencher) were constructed by hydration of a thin dry lipid film with phosphate buffered saline. Resulting multilamellar liposomes were made unilameller via extrusion through polycarbonate filters with 0.1 µm pores. Peptides (500 nM) were incubated with 200 µg/ml liposomes in phosphate buffered saline at 37°C for 22 h. Tryptophan fluorescence at 357 nm was measured from at least triplicate trials in the PerkinElmer Life Sciences LS55 spectrofluorometer and an excitation wavelength of 280 nm for SHP-1 and 290 nm for SHP-2, 10 nm excitation and 9 nm emission slit widths. The distance of tryptophans from the bilayer center (ZCF) is calculated from the equation [12]: [drawing 1] Where LC1 is the distance from the center of the bilayer to the shallow quencher, in this case 10.8 Å for 6,7-dibromo-PC [25], F1 is the intensity of tryptophan in the presence of the shallow quencher and F2 is the tryptophan intensity in the presence of the deep quencher, C is the mole fraction of quencher divided by the area of individual phospholipid (70 Å^2), and L21 is the difference in the depth of the two quenchers (2.7 Å). The hydrocarbon insertion depth of tryptophans is then given by one half the bilayer thickness, 29 Å [25], minus ZCF.

BSF T. b. brucei [2] = assay: 2 h killing assay, BSF T. b. brucei; assay type: cell-based, Trypanosoma brucei brucei; details: light microscopy (Fig. 1d, Figure S2a)
Live BSF T. b. brucei = assay: Trypanosome motility scoring by DIC microscopy; assay type: cell-based, Trypanosoma brucei brucei
Procedure: All images and videos were acquired with an Axio Observer Z1 equipped with an AxioCam MRm controlled by AxioVision 4.6 software. Videos were acquired with live cells at a density of 1×10^7 cells/mL in HMI 9 media with 10 % fetal bovine serum, incubated with 40 µM SHP at 37°C. Trypanosomes were visualized at magnification 63 × and videos were recorded with 100-ms acquisition times. The motility of BSF trypanosomes was scored directly or from video playback. Trypanosome motility was classified as normal, hyperactive or constricted as described previously. An example of a trypanosome scored as normal is shown in Movie S1. […] Data in figure 2D is shown as the average of at least duplicate trials with standard deviations.

BSF T. b. brucei [3] = assay: Flow cytometry peptide binding; assay type: cell-based, Trypanosoma brucei brucei; details: 8 µM FITC-labeled peptide, 3×10^6 cells/ml, HMI 9 plus 10 % fetal bovine serum, 25 °C, 50,000 cells counted immediately, flow cytometry (Figure S1)
Procedure: SHP binding to BSF T. b. brucei. FITC-labeled SHP-1 (blue ? ) and SHP-3 (green ? ) were assayed for binding to BSF T. b. brucei via flow cytometry (no peptide, red ? ) . Trypanosomes were adjusted to 3 × 10^6 cells/ml in HMI 9 media with 10 % fetal bovine serum, 8 µM FITC-SHP-1 or FITC-SHP-3 was added and 50,000 cells were immediately counted.
Flow Cytometry – Peptide binding to BSF T. b. brucei was monitored by flow cytometry as described previously. Binding assays were performed with 3 × 10^6 cells/ml in HMI 9 plus 10 % fetal bovine serum at 25 °C. FITC-labeled SHP-1 or SHP-3 was added to a final concentration of 8 µM and 50,000 cells were immediately counted on a CyAn ADP flow cytometer (Dako). Data were analyzed with FlowJo software (TreeStar Inc.).

[4] = Calcein release (membrane interaction) assay; assay type: physicochemical; details: unilamellar egg phosphatidylcholine liposomes with 30 mM calcein, PBS, 0.2-4 µM peptide, fluorescence 484/513 nm (Figure S2b, c)
Procedure: Trypanosome killing and membrane interaction with SHP tryptophan variants. […] (b) The ability of SHP-1 tryptophan variants, 1 µM SHP-1ΔW1 (orange ? ), 1 µM SHP-1ΔW8 (green ? ), 0.2 µM SHP-1 (blue ? ) and 0.2 µM SHP-1ΔW18 (red ? ), and (c) SHP-3 tryptophan variants, 1 µM SHP-3ΔW1 (orange ? ), 1 µM SHP-3 (blue ? ), 1 µM SHP-3ΔW13 (red ? ) and 4 µM SHP-3ΔW20 (green ? ), to interact with lipid bilayers was determined by monitoring the release of entrapped calcein from unilamellar egg phosphatidylcholine liposomes.
Calcein Release Assays – Membrane permeabilization assays were conducted as described in detail previously. Unilamellar liposomes were constructed as described above but with 30 mM calcein in 10 mM Hepes as the hydration buffer. Untrapped dye was removed by gel filtration (Sephacryl S-300 HR, GE Healthcare). Liposomes were diluted 1:1000 into phosphate buffered saline, and calcein fluorescence was monitored at 513 nm when excited at 484 nm. The percent calcein release was calculated relative to the 100% fluorescence intensity, achieved by the addition of 0.01% Triton X-100.

[5] = 500 nM peptide, PBS, 37°C, 22 h
[6] = 40 µM SHP, 37°C, 1×10^7 cells/mL, HMI 9 with 10 % fetal bovine serum, DIC microscopy, at least duplicate (Fig. 2d)

SDLGAVIWLLLGGRQLFA [SHP-1∆W8, SHP-1 tryptophan variant, Trp at position 8]
F1/F2 ± S.D. [1, 5]: 0.9767 ± 0.0717

FHQIGAALLYFYGIILNSIW [SHP-3∆W20, SHP-3 tryptophan variant, Trp at position 20]
F1/F2 ± S.D. [1, 5]: 1.1620 ± 0.3194

WDLGAVISLLLGGRQLFA [SHP-1∆W1, SHP-1 tryptophan variant, Trp at position 1]
F1/F2 ± S.D. [1, 5]: 0.8897 ± 0.1112

FHQIGAALLYFYWIILNSIY [SHP-3∆W13, SHP-3 tryptophan variant, Trp at position 13]
F1/F2 ± S.D. [1, 5]: 0.9912 ± 0.0787

SDLGAVISLLLGGRQLFW [SHP-1∆W18, SHP-1 tryptophan variant, Trp at position 18]
F1/F2 ± S.D. [1, 5]: 0.9285 ± 0.1557

FHQIWAALLYFYGIILNSIY [SHP-3, non-trypanocidal small hydrophobic peptide derived from an apolipoprotein]
trypanocidal activity against BSF T. b. brucei (BSF T. b. brucei [2]): no trypanocidal activity was detected | constriction of motility following hyperactivation (Live BSF T. b. brucei; [6]): subsequent constriction does not occur | hyperactivation of motility (Live BSF T. b. brucei; [6]): some hyperactivation | motility approximately 30 sec after addition (Live BSF T. b. brucei; 40 µM peptide, DIC video microscopy, representative cells (Movies S2, S3)): hyperactivated motility | insertion depth of native tryptophan, position 5 ([1]; 500 nM peptide, 200 µg/ml brominated egg PC liposomes, PBS, 37°C, 22 h): approximately 1.6 Å | quenching of N-terminal tryptophan (position 1) ([1]; Trp-substituted variant W1, suggests it does not intercalate into the hydrocarbon region): inefficiently quenched | insertion depth of tryptophan at position 13 ([1]; Trp-substituted variant W13, 500 nM peptide, 200 µg/ml brominated egg PC liposomes, PBS, 37°C, 22 h): approximately 4.7 Å | insertion depth of C-terminal tryptophan (position 20) ([1]; Trp-substituted variant W20, 500 nM peptide, 200 µg/ml brominated egg PC liposomes, PBS, 37°C, 22 h): approximately 11.2 Å | F1/F2 ± S.D. [1, 5]: 0.9202 ± 0.1260 | binding to BSF T. brucei (BSF T. b. brucei [3]): binding to BSF T. brucei | membrane interaction (release of entrapped calcein from liposomes) [4]: exhibit membrane interaction
